In patent US12344603B2 (Genentech, Inc., priority 2020, dated 2025):

biological target: IRE1α (Homo sapiens (Human), UniProt O75460, D688N); assay: IRE1α TR-FRET competition binding assay (IRE1α HTRF); conditions: TR-FRET competition binding to kinase domain of IRE1α
Outline: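 Kinase domain (0.25 nM) pre-bound to 2 nM Eu anti-His antibody for 1 h at 4° C in HEPES pH 7.5/MgCl2/Brij 35/DTT/gamma globulin buffer, then mixed with compounds and 2 nM Alexa 647 ATP-competitive probe. 1 h at room temperature; probe displacement read as TR-FRET (Ex 347 nm, Em 665/615 nm).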

Sequence of IRE1α (O75460 547-977 D688N): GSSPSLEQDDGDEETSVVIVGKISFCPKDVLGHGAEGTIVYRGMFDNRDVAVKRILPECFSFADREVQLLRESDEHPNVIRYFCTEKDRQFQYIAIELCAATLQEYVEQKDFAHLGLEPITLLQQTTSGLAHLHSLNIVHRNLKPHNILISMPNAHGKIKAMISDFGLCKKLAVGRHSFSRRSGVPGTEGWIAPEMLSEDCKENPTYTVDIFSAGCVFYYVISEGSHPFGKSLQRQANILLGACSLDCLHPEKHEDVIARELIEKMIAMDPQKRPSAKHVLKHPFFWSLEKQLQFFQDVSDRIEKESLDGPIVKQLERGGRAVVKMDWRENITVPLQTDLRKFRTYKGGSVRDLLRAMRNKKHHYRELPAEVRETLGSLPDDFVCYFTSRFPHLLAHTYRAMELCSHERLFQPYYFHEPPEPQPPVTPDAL

SMILES	IC50 [pM]
CC(C)n1c(=O)c(-c2ccc(NS(=O)(=O)CCC(F)(F)F)c(F)c2)cc2cnc(NC3CCC(O)C(N(C)C)C3)nc21 (stereo not shown) [Example 225, N-(4-(2-((3-(Dimethylamino)-4-hydroxycyclohexyl)amino)-8-isopropyl-7-oxo-7,8-dihydropyrido[2,3-d]pyrimidin-6-yl)-2-fluorophenyl)-3,3,3-trifluoropropane-1-sulfonamide]	5400
CC(C)n1c(=O)c(-c2ccc(NS(=O)(=O)CCC(F)(F)F)c(F)c2)cc2cnc(N[C@@H]3CC[C@@H](N(C)C)[C@H](O)C3)nc21 [Example 227, N-(4-(2-(((1R,3R,4R)-4-(Dimethylamino)-3-hydroxycyclohexyl)amino)-8-isopropyl-7-oxo-7,8-dihydropyrido[2,3-d]pyrimidin-6-yl)-2-fluorophenyl)-3,3,3-trifluoropropane-1-sulfonamide]	300
CC(C)n1c(=O)c(-c2ccc(NS(=O)(=O)CCC3CCC3)c(F)c2)cc2cnc(N[C@H]3CC[C@H](N(C)C)CC3)nc21 [Example 231, 2-cyclobutyl-N-(4-(2-(((1r,4r)-4-(dimethyl-amino)cyclohexyl)-amino)-8-isopropyl-7-oxo-7,8-dihydropyrido-[2,3-d]pyrimidin-6-yl)-2-fluorophenyl)ethane-1-sulfonamide]	100
CC(C)n1c(=O)c(-c2cnc(NS(=O)(=O)CCC(F)(F)F)nc2)cc2cnc(N[C@H]3CC[C@H](N(C)C)CC3)nc21 [Example 233, N-(5-(2-(((1r,4r)-4-(Dimethylamino)cyclohexyl)amino)-8-isopropyl-7-oxo-7,8-dihydropyrido[2,3-d]pyrimidin-6-yl)pyrimidin-2-yl)-3,3,3-trifluoropropane-1-sulfonamide]	1300
COCCN1CC2(CCC(Nc3ncc4cc(-c5ccc(NS(=O)(=O)CCC(F)(F)F)c(F)c5)c(=O)n(C(C)C)c4n3)CC2)C1 [Example 234, 3,3,3-Trifluoro-N-(2-fluoro-4-(8-isopropyl-2-((2-(2-methoxyethyl)-2-azaspiro[3.5]nonan-7-yl)amino)-7-oxo-7,8-dihydropyrido[2,3-d]pyrimidin-6-yl)phenyl)propane-1-sulfonamide]	200
CC(C)n1c(=O)c(-c2ccc(NS(=O)(=O)CCC(F)(F)F)c(F)c2)cc2cnc(NC3CCC4(CC3)CN(CCF)C4)nc21 [Example 235, 3,3,3-trifluoro-N-(2-fluoro-4-(2-((2-(2-fluoroethyl)-2-azaspiro-[3.5]nonan-7-yl)amino)-8-isopropyl-7-oxo-7,8-dihydropyrido[2,3-d]-pyrimidin-6-yl)phenyl)-propane-1-sulfonamide]	300
CC(C)n1c(=O)c(-c2ccc(NS(=O)(=O)Cc3ccccc3)nc2)nc2cnc(N[C@@H]3CNC[C@@H](F)C3)nc21 [Example 236, N-[5-[2-[[(3S,5S)-5-fluoro-3-piperidyl]amino]-8-isopropyl-7-oxo-pteridin-6-yl]-2-pyridyl]-1-phenyl-methanesulfonamide]	500
CC(C)n1c(=O)c(-c2ccc(NS(=O)(=O)Cc3ccccc3F)nc2)nc2cnc(N[C@@H]3CNC[C@@H](F)C3)nc21 [Example 237, 1-(2-Fluorophenyl)-N-[5-[2-[[(3S,5S)-5-fluoro-3-piperidyl]amino]-8-isopropyl-7-oxo-pteridin-6-yl]-2-pyridyl]methanesulfonamide]	300
CC(C)n1c(=O)c(-c2ccc(NS(=O)(=O)CCC(C)(F)F)nc2)nc2cnc(N[C@H]3CC[C@H](N(C)C)CC3)nc21 [Example 238, N-[5-[2-[[4-(Dimethylamino)cyclohexyl]amino]-8-isopropyl-7-oxo-pteridin-6-yl]-2-pyridyl]-3,3-difluoro-butane-1-sulfonamide]	400
CC(C)n1c(=O)c(-c2cc(F)c(NS(=O)(=O)CCC(F)(F)F)c(F)c2)nc2cnc(N[C@H]3CC[C@H](N(C)C)CC3)nc21 [Example 239, N-[4-[2-[[4-(Dimethylamino)cyclohexyl]amino]-8-isopropyl-7-oxo-pteridin-6-yl]-2,6-difluoro-phenyl]-3,3,3-trifluoro-propane-1-sulfonamide]	200
CC(C)n1c(=O)c(-c2cc(F)c(NS(=O)(=O)CCC(C)(F)F)c(F)c2)nc2cnc(N[C@H]3CC[C@H](N(C)C)CC3)nc21 [Example 241, N-[4-[2-[[4-(Dimethylamino)cyclohexyl]amino]-8-isopropyl-7-oxo-pteridin-6-yl]-2,6-difluoro-phenyl]-3,3-difluoro-butane-1-sulfonamide]	200
CC(C)n1c(=O)c(-c2cc(F)c(NS(=O)(=O)Cc3ccc(C(F)F)cc3)c(F)c2)nc2cnc(N[C@H]3CC[C@H](N(C)C)CC3)nc21 [Example 244, 1-[4-(Difluoromethyl)phenyl]-N-[4-[2-[[4-(dimethylamino)cyclohexyl]amino]-8-isopropyl-7-oxo-pteridin-6-yl]-2,6-difluoro-phenyl]methanesulfonamide]	200
Cc1ccc(CS(=O)(=O)Nc2c(F)cc(-c3nc4cnc(N[C@H]5CC[C@H](N(C)C)CC5)nc4n(C(C)C)c3=O)cc2F)cc1 [Example 246, N-[4-[2-[[4-(Dimethylamino)cyclohexyl]amino]-8-isopropyl-7-oxo-pteridin-6-yl]-2,6-difluoro-phenyl]-1-(p-tolyl)methanesulfonamide]	200
CC(C)n1c(=O)c(-c2cc(F)c(NS(=O)(=O)CC(F)(F)CC3CC3)c(F)c2)nc2cnc(N[C@H]3CC[C@H](N(C)C)CC3)nc21 [Example 248, 3-Cyclopropyl-N-[4-[2-[[4-(dimethylamino)cyclohexyl]amino]-8-isopropyl-7-oxo-pteridin-6-yl]-2,6-difluoro-phenyl]-2,2-difluoro-propane-1-sulfonamide]	200
CC(C)n1c(=O)c(-c2cc(F)c(NS(=O)(=O)CC3CC(F)(F)C3)c(F)c2)nc2cnc(N[C@H]3CC[C@H](N(C)C)CC3)nc21 [Example 249, 1-(3,3-Difluorocyclobutyl)-N-[4-[2-[[4-(dimethylamino)cyclohexyl]amino]-8-isopropyl-7-oxo-pteridin-6-yl]-2,6-difluoro-phenyl]methanesulfonamide]	200

Continued, values first:

IC50 [pM]	SMILES
500	CC(C)n1c(=O)c(-c2ccc(NS(=O)(=O)CCC(F)(F)F)cn2)cc2cnc(N[C@H]3CC[C@H](N(C)C)[C@H](F)C3)nc21 [Example 223, N-(6-(2-(((1S,3R,4S)-4-(Dimethylamino)-3-fluorocyclohexyl)amino)-8-isopropyl-7-oxo-7,8-dihydropyrido[2,3-d]pyrimidin-6-yl)pyridin-3-yl)-3,3,3-trifluoropropane-1-sulfonamide]
200	CC(C)n1c(=O)c(-c2ccc(NS(=O)(=O)CCC(F)(F)F)nc2)cc2cnc(N[C@H]3CC[C@H](N(C)C)[C@H](F)C3)nc21 [Example 224]
300	CC(C)n1c(=O)c(-c2ccc(NS(=O)(=O)CCC(C)(F)F)c(F)c2)cc2cnc(N[C@H]3CC[C@H](N(C)C)CC3)nc21 [Example 229, N-(4-(2-(((1r,4r)-4-(Dimethylamino)cyclohexyl)amino)-8-isopropyl-7-oxo-7,8-dihydropyrido[2,3-d]pyrimidin-6-yl)-2-fluorophenyl)-3,3-difluorobutane-1-sulfonamide]
200	CC(C)n1c(=O)c(-c2ccc(NS(=O)(=O)CCC3(C)CC3)c(F)c2)cc2cnc(N[C@H]3CC[C@H](N(C)C)CC3)nc21 [Example 230, N-(4-(2-(((1r,4r)-4-(dimethylamino)cyclo-hexyl)amino)-8-isopropyl-7-oxo-7,8-dihydropyrido[2,3-d]-pyrimidin-6-yl)-2-fluorophenyl)-2-(1-methylcyclopropyl)-ethane-1-sulfonamide]
200	CC(C)n1c(=O)c(-c2ccc(NS(=O)(=O)CCCC3CC3)c(F)c2)cc2cnc(N[C@H]3CC[C@H](N(C)C)CC3)nc21 [Example 232, 3-cyclopropyl-N-(4-(2-(((1r,4r)-4-(dimethyl-amino)cyclohexyl)-amino)-8-isopropyl-7-oxo-7,8-dihydropyrido-[2,3-d]pyrimidin-6-yl)-2-fluorophenyl)propane-1-sulfonamide]
100	CC(C)n1c(=O)c(-c2cc(F)c(NS(=O)(=O)CC3(C(F)(F)F)CC3)c(F)c2)nc2cnc(N[C@H]3CC[C@H](N(C)C)CC3)nc21 [Example 240, N-[4-[2-[[4-(Dimethylamino)cyclohexyl]amino]-8-isopropyl-7-oxo-pteridin-6-yl]-2,6-difluoro-phenyl]-1-[1-(trifluoromethyl)cyclopropyl]methanesulfonamide]
100	CCCS(=O)(=O)Nc1c(F)cc(-c2nc3cnc(N[C@H]4CC[C@H](N(C)C)CC4)nc3n(C(C)C)c2=O)cc1F [Example 242, N-[4-[2-[[4-(Dimethylamino)cyclohexyl]amino]-8-isopropyl-7-oxo-pteridin-6-yl]-2,6-difluoro-phenyl]propane-1-sulfonamide]
800	CC(C)n1c(=O)c(-c2cc(F)c(NS(=O)(=O)Cc3ccc(Cl)cc3)c(F)c2)nc2cnc(N[C@H]3CC[C@H](N(C)C)CC3)nc21 [Example 243, 1-(4-Chlorophenyl)-N-[4-[2-[[4-(dimethylamino)cyclohexyl]amino]-8-isopropyl-7-oxo-pteridin-6-yl]-2,6-difluoro-phenyl]methanesulfonamide]
100	CC(C)n1c(=O)c(-c2cc(F)c(NS(=O)(=O)Cc3ccc(F)cc3)c(F)c2)nc2cnc(N[C@H]3CC[C@H](N(C)C)CC3)nc21 [Example 245, N-[4-[2-[[4-(Dimethylamino)cyclohexyl]amino]-8-isopropyl-7-oxo-pteridin-6-yl]-2,6-difluoro-phenyl]-1-(4-fluorophenyl)methanesulfonamide]
100	CC(C)n1c(=O)c(-c2cc(F)c(NS(=O)(=O)Cc3ccccc3)c(F)c2)nc2cnc(N[C@H]3CC[C@H](N(C)C)CC3)nc21 [Example 247, N-[4-[2-[[4-(Dimethylamino)cyclohexyl]amino]-8-isopropyl-7-oxo-pteridin-6-yl]-2,6-difluoro-phenyl]-1-phenyl-methanesulfonamide]
